Assay results taken from paper PMC6240092, “NUAK2 is a critical YAP target in liver cancer” (Nature Communications, 2018).

Target: T1, NUAK2 (Homo sapiens, UniProt Q9H093)
T1 construct: N-terminal GST-tagged NUAK2, expressed in HEK-293 cells and purified by glutathione-sepharose
T1 sequence (Q9H093 1-628): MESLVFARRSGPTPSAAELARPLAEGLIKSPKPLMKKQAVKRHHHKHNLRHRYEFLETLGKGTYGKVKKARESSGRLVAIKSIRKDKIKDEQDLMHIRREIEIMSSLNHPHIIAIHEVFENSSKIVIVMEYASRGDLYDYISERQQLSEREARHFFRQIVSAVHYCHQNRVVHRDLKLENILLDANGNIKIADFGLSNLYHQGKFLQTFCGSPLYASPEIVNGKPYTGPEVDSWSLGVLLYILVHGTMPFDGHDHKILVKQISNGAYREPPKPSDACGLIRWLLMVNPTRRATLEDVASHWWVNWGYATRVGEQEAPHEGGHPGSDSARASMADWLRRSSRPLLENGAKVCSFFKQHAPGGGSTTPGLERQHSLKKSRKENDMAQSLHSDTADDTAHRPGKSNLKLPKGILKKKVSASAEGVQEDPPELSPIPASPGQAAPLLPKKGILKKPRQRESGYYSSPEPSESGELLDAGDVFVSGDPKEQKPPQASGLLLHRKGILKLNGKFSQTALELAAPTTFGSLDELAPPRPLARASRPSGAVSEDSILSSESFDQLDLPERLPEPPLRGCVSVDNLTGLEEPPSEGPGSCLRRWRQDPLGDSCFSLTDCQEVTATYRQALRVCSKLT
Assay: radiometric peptide kinase assay with [γ-32P]ATP ([…]) and Sakamototide ([…])
Format: biochemical

IC50: 126 nM
SMILES: CCC(=O)Nc1cccc(Oc2nc(Nc3ccc(N4CCN(C)CC4)cc3OC)ncc2I)c1 [HTH-02-006]
